System: hamster liver nuclei
Experiment: Reconstitution of DNA fragmentation and nuclear morphological change in HeLa S-100 immunodepleted of cytochrome c
Type: biochemical
Method: Cytochrome c present in the HeLa cell S-100 was immunodepleted as described in the Example 10. In FIG. 7A, 10 μl aliquots of HeLa S-100 (50 μg) (lanes 1 and 2), or 10 μl aliquots of HeLa S-100 immunodepleted of cytochrome c (lanes 3 and 4), or 10 μl of HeLa S-100 immunodepleted of cytochrome c supplemented with 0.2 μg Apaf-2 purified through the Mono S column (H) (lanes 5 and 6), bovine heart cytochrome c (B) (lanes 7 and 8), or rat liver cytochrome c (R) (lanes 9 and 10), were incubated with aliquots of 3 μl in vitro translated, ^35S-labeled CPP32 in the absence (lanes 1, 3, 5, 7, 9) or presence (lanes 2, 4, 6, 8, 10) of 1 mM dATP at 30° C. for 1 hr in a final reaction volume of 20 μl of buffer A. Samples were subjected to SDS-PAGE and transferred to a nitrocellulose filter which were then exposed to film for 16 hr at room temperature. In FIG. 7B, HeLa S-100 (50 μg) immunodepleted of cytochrome c were reconstituted with the indicated amount of Apaf-2 (purified through Mono S column step) in a CPP32 cleavage reaction as described in FIG. 7A. The cleaved products (p20) were quantified in a Fuji-1000 phosphorimager machine and plotted in comparison with that generated by HeLa S-100. In FIG. 7C, aliquots of 50 μl of HeLa S-100 (250 μg) (lanes 1 and 2), or 50 μl of HeLa S-100 immunodepleted of cytochrome c (lanes 3 and 4), or 50 μl of HeLa S-100 immunodepleted of cytochrome c supplemented with 1 μg apaf-2 purified through the Mono S column (H) (lanes 5 and 6), bovine heart cytochrome c (B) (lanes 7 and 8), or rat liver cytochrome c (R) (lanes 9 and 10), were incubated with aliquots of 6 μl hamster liver nuclei in the absence (lanes 1, 3, 5, 7, 9) or presence (lanes 2, 4, 6, 8, 10) of 1 mM dATP at 37° C. for 2 hr in a final reaction volume of 60 μl. The DNA were isolated as described in the Examples, analyzed on 2% agarose gel electrophoresis, and the DNA was visualized by ethidium bromide staining. In FIG. 7D, DNA fragmentation assays were carried out as in FIG. 7C using HeLa S-100 immunodepleted of cytochrome c alone (a,b) or supplemented with Apaf-2 purified through Mono S column step (c,d) in the absence (a,c) or presence of 1 mM dATP (b,d). After 2 hr incubation at 37° C., an aliquot of each reaction (30 μl) was stained with 4′,6′-diamidino-2-phenylindole (DAPI), and observed under a fluorescence microscope with a UV-2A combination filter.
To rule out the possibility that the Apaf-2 activity is due to a minor contaminating protein that co-purified with cytochrome c, an immunodepletion experiment was carried out using a monoclonal antibody against rat cytochrome c. This monoclonal antibody cross-reacts with purified Apaf-2. […]

Apaf-2: 15 kDa factor bound to phosphocellulose column, purified from HeLa S-100, identified as human cytochrome c
restoration of DNA fragmentation (1 μg added to immunodepleted HeLa S-100, 1 mM dATP): restored | nuclear morphological change (DAPI) (immunodepleted S-100 supplemented with Apaf-2, 1 mM dATP): accompanied by the morphological change in the co-incubated nuclei that is characteristic of apoptosis

From US6558900B2, “Regulation of apoptosis and in vitro model for studies thereof” (Emory University, priority 1996, dated 2003)
